Experimental data: ChEMBL document CHEMBL3046559, “Sterile oat (Avena sterilis L.) cross-resistance profile to ACCase-inhibiting herbicides in Greece” (2012)

Legend:
Format in all cases: functional
Avena sterilis [1] = assay: Herbicidal activity against Avena sterilis accession P16 assessed as weed survival at 8 times field recommended herbicide dose
Avena sterilis [2] = assay: Herbicidal activity against Avena sterilis accession P15 assessed as induction of weed mortality
Avena sterilis [3] = assay: Herbicidal activity against Avena sterilis accession P21S assessed as weed survival at 1/8 times field recommended herbicide dose
Avena sterilis [4] = assay: Herbicidal activity against Avena sterilis accession P13S assessed as weed survival at 1/4 times field recommended herbicide dose
Avena sterilis [5] = assay: Herbicidal activity against Avena sterilis accession P21S assessed as induction of weed mortality
Avena sterilis [6] = assay: Herbicidal activity against Avena sterilis accession P09 assessed as weed survival at 8 times field recommended herbicide dose
Avena sterilis [7] = assay: Herbicidal activity against Avena sterilis accession P22 assessed as weed survival at 8 times field recommended herbicide dose
Avena sterilis [8] = assay: Herbicidal activity against Avena sterilis accession P14 assessed as weed survival at 8 times field recommended herbicide dose
Avena sterilis [9] = assay: Herbicidal activity against Avena sterilis accession P11 assessed as weed survival at 16 times field recommended herbicide dose
Avena sterilis [10] = assay: Herbicidal activity against Avena sterilis accession P03 assessed as weed survival at 8 times field recommended herbicide dose
Avena sterilis [11] = assay: Herbicidal activity against Avena sterilis accession P07 assessed as weed survival at 32 times field recommended herbicide dose
Avena sterilis [12] = assay: Herbicidal activity against Avena sterilis accession P17 assessed as induction of weed mortality
Avena sterilis [13] = assay: Herbicidal activity against Avena sterilis accession P06S assessed as weed survival at 1/32 times field recommended herbicide dose
Avena sterilis [14] = assay: Herbicidal activity against Avena sterilis accession P12 assessed as weed survival at 1 times field recommended herbicide dose
Avena sterilis [15] = assay: Herbicidal activity against Avena sterilis accession P09 assessed as induction of weed mortality
Avena sterilis [16] = assay: Herbicidal activity against Avena sterilis accession P17 assessed as weed survival at 16 times field recommended herbicide dose
Avena sterilis [17] = assay: Herbicidal activity against Avena sterilis accession P17 assessed as weed survival at 32 times field recommended herbicide dose
Avena sterilis [18] = assay: Herbicidal activity against Avena sterilis accession P13S assessed as weed survival at 1/16 times field recommended herbicide dose
Avena sterilis [19] = assay: Herbicidal activity against Avena sterilis accession P05 assessed as weed survival at 8 times field recommended herbicide dose
Avena sterilis [20] = assay: Herbicidal activity against Avena sterilis accession P14 assessed as weed survival at 1 times field recommended herbicide dose
Avena sterilis [21] = assay: Herbicidal activity against Avena sterilis accession P10S assessed as weed survival at 1 times field recommended herbicide dose
Avena sterilis [22] = assay: Herbicidal activity against Avena sterilis accession P20 assessed as weed survival at 32 times field recommended herbicide dose
Avena sterilis [23] = assay: Herbicidal activity against Avena sterilis accession P04 assessed as induction of weed mortality
Avena sterilis [24] = assay: Herbicidal activity against Avena sterilis accession P10S assessed as weed survival at 1/4 times field recommended herbicide dose
Avena sterilis [25] = assay: Herbicidal activity against Avena sterilis accession P03 assessed as weed survival at 16 times field recommended herbicide dose
Avena sterilis [26] = assay: Herbicidal activity against Avena sterilis accession P16 assessed as induction of weed mortality
Avena sterilis [27] = assay: Herbicidal activity against Avena sterilis accession P20 assessed as weed survival at 4 times field recommended herbicide dose
Avena sterilis [28] = assay: Herbicidal activity against Avena sterilis accession P16 assessed as weed survival at 1 times field recommended herbicide dose
Avena sterilis [29] = assay: Herbicidal activity against Avena sterilis accession P15 assessed as weed survival at 32 times field recommended herbicide dose
Avena sterilis [30] = assay: Herbicidal activity against Avena sterilis accession P11 assessed as induction of weed mortality
Avena sterilis [31] = assay: Herbicidal activity against Avena sterilis accession P16 assessed as weed survival at 4 times field recommended herbicide dose
Avena sterilis [32] = assay: Herbicidal activity against Avena sterilis accession P18 assessed as induction of weed mortality
Avena sterilis [33] = assay: Herbicidal activity against Avena sterilis accession P10S assessed as weed survival at 1/16 times field recommended herbicide dose
Avena sterilis [34] = assay: Herbicidal activity against Avena sterilis accession P02 assessed as induction of weed mortality
Avena sterilis [35] = assay: Herbicidal activity against Avena sterilis accession P08 assessed as weed survival at 1 times field recommended herbicide dose
Avena sterilis [36] = assay: Herbicidal activity against Avena sterilis accession P03 assessed as weed survival at 1 times field recommended herbicide dose
Avena sterilis [37] = assay: Herbicidal activity against Avena sterilis accession P17 assessed as weed survival at 1 times field recommended herbicide dose
Avena sterilis [38] = assay: Herbicidal activity against Avena sterilis accession P18 assessed as weed survival at 16 times field recommended herbicide dose
Avena sterilis [39] = assay: Herbicidal activity against Avena sterilis accession P01 assessed as weed survival at 1 times field recommended herbicide dose
Avena sterilis [40] = assay: Herbicidal activity against Avena sterilis accession P04 assessed as weed survival at 4 times field recommended herbicide dose
Avena sterilis [41] = assay: Herbicidal activity against Avena sterilis accession P08 assessed as weed survival at 16 times field recommended herbicide dose
Avena sterilis [42] = assay: Herbicidal activity against Avena sterilis accession P05 assessed as weed survival at 32 times field recommended herbicide dose
Avena sterilis [43] = assay: Herbicidal activity against Avena sterilis accession P01 assessed as weed survival at 8 times field recommended herbicide dose
Avena sterilis [44] = assay: Herbicidal activity against Avena sterilis accession P01 assessed as weed survival at 32 times field recommended herbicide dose
Avena sterilis [45] = assay: Herbicidal activity against Avena sterilis accession P14 assessed as induction of weed mortality
Avena sterilis [46] = assay: Herbicidal activity against Avena sterilis accession P05 assessed as induction of weed mortality
Avena sterilis [47] = assay: Herbicidal activity against Avena sterilis accession P02 assessed as weed survival at 8 times field recommended herbicide dose
Avena sterilis [48] = assay: Herbicidal activity against Avena sterilis accession P03 assessed as weed survival at 32 times field recommended herbicide dose
Avena sterilis [49] = assay: Herbicidal activity against Avena sterilis accession P19S assessed as weed survival at 1/8 times field recommended herbicide dose
Avena sterilis [50] = assay: Herbicidal activity against Avena sterilis accession P02 assessed as weed survival at 16 times field recommended herbicide dose
Avena sterilis [51] = assay: Herbicidal activity against Avena sterilis accession P20 assessed as weed survival at 16 times field recommended herbicide dose
Avena sterilis [52] = assay: Herbicidal activity against Avena sterilis accession P18 assessed as weed survival at 1 times field recommended herbicide dose
Avena sterilis [53] = assay: Herbicidal activity against Avena sterilis accession P11 assessed as weed survival at 1 times field recommended herbicide dose
Avena sterilis [54] = assay: Herbicidal activity against Avena sterilis accession P13S assessed as induction of weed mortality
Avena sterilis [55] = assay: Herbicidal activity against Avena sterilis accession P20 assessed as weed survival at 8 times field recommended herbicide dose
Avena sterilis [56] = assay: Herbicidal activity against Avena sterilis accession P07 assessed as weed survival at 4 times field recommended herbicide dose
Avena sterilis [57] = assay: Herbicidal activity against Avena sterilis accession P06S assessed as weed survival at 1/16 times field recommended herbicide dose
Avena sterilis [58] = assay: Herbicidal activity against Avena sterilis accession P12 assessed as weed survival at 4 times field recommended herbicide dose

COCc1cnc(C2=NC(C)(C(C)C)C(=O)N2)c(C(=O)O)c1 (stereo unspecified) [IMAZAMOX]
Survival (Avena sterilis [1]): 0%
GR50 (Avena sterilis [2]): <50 gAi/ha
Survival (Avena sterilis [3]): 87%
Survival (Avena sterilis [4]): 40%
GR50 (Avena sterilis [5]): 14 gAi/ha
Survival (Avena sterilis [6]): 0%
Survival (Avena sterilis [7]): 0%
Survival (Avena sterilis [8]): 0%
Survival (Avena sterilis [9]): 0%
Survival (Avena sterilis [10]): 0%
Survival (Avena sterilis [11]): 0%
GR50 (Avena sterilis [12]): <50 gAi/ha
Survival (Avena sterilis [13]): 97%
Survival (Avena sterilis [14]): 0%
GR50 (Avena sterilis [15]): <50 gAi/ha
Survival (Avena sterilis [16]): 0%
Survival (Avena sterilis [17]): 0%
Survival (Avena sterilis [18]): 80%
Survival (Avena sterilis [19]): 0%
Survival (Avena sterilis [20]): 0%
Survival (Avena sterilis [21]): 0%
Survival (Avena sterilis [22]): 0%
GR50 (Avena sterilis [23]): <50 gAi/ha
Survival (Avena sterilis [24]): 20%
Survival (Avena sterilis [25]): 0%
GR50 (Avena sterilis [26]): <50 gAi/ha
Survival (Avena sterilis [27]): 0%
Survival (Avena sterilis [28]): 0%
Survival (Avena sterilis [29]): 0%
GR50 (Avena sterilis [30]): <50 gAi/ha
Survival (Avena sterilis [31]): 0%
GR50 (Avena sterilis [32]): <50 gAi/ha
Survival (Avena sterilis [33]): 80%
GR50 (Avena sterilis [34]): <50 gAi/ha
Survival (Avena sterilis [35]): 3%
Survival (Avena sterilis [36]): 0%
Survival (Avena sterilis [37]): 3%
Survival (Avena sterilis [38]): 0%
Survival (Avena sterilis [39]): 0%
Survival (Avena sterilis [40]): 0%
Survival (Avena sterilis [41]): 0%
Survival (Avena sterilis [42]): 0%
Survival (Avena sterilis [43]): 0%
Survival (Avena sterilis [44]): 0%
GR50 (Avena sterilis [45]): <50 gAi/ha
GR50 (Avena sterilis [46]): <50 gAi/ha
Survival (Avena sterilis [47]): 0%
Survival (Avena sterilis [48]): 0%
Survival (Avena sterilis [49]): 80%
Survival (Avena sterilis [50]): 0%
Survival (Avena sterilis [51]): 0%
Survival (Avena sterilis [52]): 0%
Survival (Avena sterilis [53]): 0%
GR50 (Avena sterilis [54]): 8 gAi/ha
Survival (Avena sterilis [55]): 0%
Survival (Avena sterilis [56]): 0%
Survival (Avena sterilis [57]): 93%
Survival (Avena sterilis [58]): 0%

CCc1cc(C)cc(CC)c1-c1c(OC(=O)C(C)(C)C)n2n(c1=O)CCOCC2 [PINOXADEN]
Survival (Avena sterilis [1]): 0%
GR50 (Avena sterilis [2]): <40 gAi/ha
Survival (Avena sterilis [3]): 57%
Survival (Avena sterilis [4]): 3%
GR50 (Avena sterilis [5]): 5.8 gAi/ha
Survival (Avena sterilis [6]): 0%
Survival (Avena sterilis [7]): 0%
Survival (Avena sterilis [8]): 0%
Survival (Avena sterilis [9]): 0%
Survival (Avena sterilis [10]): 0%
Survival (Avena sterilis [11]): 0%
GR50 (Avena sterilis [12]): <40 gAi/ha
Survival (Avena sterilis [13]): 97%
Survival (Avena sterilis [14]): 0%
GR50 (Avena sterilis [15]): <40 gAi/ha
Survival (Avena sterilis [16]): 0%
Survival (Avena sterilis [17]): 0%
Survival (Avena sterilis [18]): 97%
Survival (Avena sterilis [19]): 0%
Survival (Avena sterilis [20]): 0%
Survival (Avena sterilis [21]): 0%
Survival (Avena sterilis [22]): 0%
GR50 (Avena sterilis [23]): 74 gAi/ha
Survival (Avena sterilis [24]): 0%
Survival (Avena sterilis [25]): 0%
GR50 (Avena sterilis [26]): <40 gAi/ha
Survival (Avena sterilis [27]): 0%
Survival (Avena sterilis [28]): 0%
Survival (Avena sterilis [29]): 0%
GR50 (Avena sterilis [30]): <40 gAi/ha
Survival (Avena sterilis [31]): 0%
GR50 (Avena sterilis [32]): <40 gAi/ha
Survival (Avena sterilis [33]): 97%
GR50 (Avena sterilis [34]): <40 gAi/ha
Survival (Avena sterilis [35]): 20%
Survival (Avena sterilis [36]): 20%
Survival (Avena sterilis [37]): 0%
Survival (Avena sterilis [38]): 0%
Survival (Avena sterilis [39]): 20%
Survival (Avena sterilis [40]): 20%
Survival (Avena sterilis [41]): 0%
Survival (Avena sterilis [42]): 0%
Survival (Avena sterilis [43]): 0%
Survival (Avena sterilis [44]): 0%
GR50 (Avena sterilis [45]): <40 gAi/ha
GR50 (Avena sterilis [46]): <40 gAi/ha
Survival (Avena sterilis [47]): 0%
Survival (Avena sterilis [48]): 0%
Survival (Avena sterilis [49]): 50%
Survival (Avena sterilis [50]): 0%
Survival (Avena sterilis [51]): 0%
Survival (Avena sterilis [52]): 0%
Survival (Avena sterilis [53]): 0%
GR50 (Avena sterilis [54]): 4.1 gAi/ha
Survival (Avena sterilis [55]): 0%
Survival (Avena sterilis [56]): 0%
Survival (Avena sterilis [57]): 80%
Survival (Avena sterilis [58]): 0%
